The values below come from US20150164867A1, “METHODS OF IMPROVING LONG-TERM SURVIVAL AND REDUCING HOSPITALIZATION READMISSION RATES FOR SUBJECTS SUFFERING FROM HEPATIC ENCEPHALOPATHY” (Salix Pharmaceuticals, Ltd, priority 2012, published 2015).

In series [1] the test system is patients admitted for overt HE. The series can be described thus: Chart review of survival outcomes in patients admitted for overt HE. Type of series: in vivo, human. Particulars: for Survival Rates, One Year / Survival Rates, Six Months / Survival Rates, Three Years: overt HE patients; for Survival Rates, One Year: one year after discharge; for Survival Rates, Six Months: six months after discharge, RFX 1200 then 1100 mg/day, LAC 30-120 cc/day; for Survival Rates, Three Years: three years after discharge. An excerpt: The medical charts of outpatient and hospitalized patients admitted for overt HE were examined over a 137-month (about an 11.5-year) window. Information collected included gender, age, ethnicity, post discharge HE management protocol, HE hospitalization number (frequency) and time (days) to transplant or death. […] The lactulose dose (LAC) was 30-120 cc/day, adjusted to acquire two to three loose to soft bowel movements. Time from discharge to death or transplant was reported.
In the study, 185 patients were identified, 106 of which were males, 79 or which were females. The median age was 48.5 years (range: 28-72 years). The ethnic group breakdown was as follows: 66% Caucasian, 12% African American, 18% Hispanic, 4% Other. The mean MELD score was 18.5 points (range: 12-40).

Series [2] has as its system patients admitted for overt HE. The experiment in a line: Chart review of hospital readmission in cirrhotic patients with overt HE. The format is in vivo, human. An excerpt: The medical charts of outpatient and hospitalized patients admitted for overt HE were examined over a 137-month (about an 11.5-year) window. Information collected included gender, age, ethnicity, MELD score, post discharge HE management protocol, HE hospitalization number (frequency), time to readmission (days) and health insurance coverage. All patients suffering from infection, renal failure, gastrointestinal bleeding or […] were excluded. Group one consisted of patients discharged with lactulose (LAC) treatment. Group two consisted of patients discharged on rifaximin (RFX) treatment. Group three consisted of patients discharged on rifaximin treatment combined with lactulose treatment (RFX/LAC). […] The lactulose dose (LAC) was 30-120 cc/day, adjusted to acquire two to three loose to soft bowel movements. Time from discharge to readmission was measured. All patients were required to have a follow up visit after discharge and maintain family support and employment. Patients were broken down into compliant and non-compliant groups with outpatient follow-up. Eighty-seven (87) patients were identified as compliant, while forty-nine (49) patients were identified as non-compliant. In the compliant group, there were 51 males and 36 females, with an age range of between 32 and 68 years. The ethnic group breakdown for the compliant group was as follows: 66% Caucasian, 14% African American, 17% Hispanic and 3% other. The mean MELD score of the compliant group was 12.5 points (range: 8-17). In the non-compliant group, there were 29 males and 20 females, with an age range of between 28 and 66 years. The ethnic group breakdown for the non-compliant group was as follows: 64% Caucasian, 18% African American and 18% Hispanic. The mean MELD score of the non-compliant group was 11.5 points (range: 6-18).

The test system of series [3] is compensated cirrhotic patients with SHE. The series can be described thus: Chart review of daily caloric intake in compensated cirrhotic patients with subclinical hepatic encephalopathy. The format is in vivo, human. An excerpt:
The medical charts were reviewed for non-hospitalized patients with compensated cirrhosis with and without the diagnosis of subclinical hepatic encephalopathy. […] All patients were reported to be at baseline Conn score Grade 0-1 HE, and employment status was identified. Information collected included; gender, age, ethnicity, weight/height, exercise and employment status, and daily calorie counts for 14 days. Daily caloric intake was registered with food consumption logs by patients and family. Normal caloric intake was considered at 1600 to 2200 calories/day depending upon dietary requirements. The daily caloric totals were conducted with the Calorie Smart calculator. […] There were 64 patients involved in the study: 29 females, 35 males, age (range 19-68), ethnicity (81% Caucasian, 8% African American, 8% Hispanic, 3% other), and mean MELD 8.5 points (range 6-13). There were no events of occult HE or hospitalizations throughout the review.

Series [4] has as its system species of Staphylococcus, Streptococcus, Enterococcus, and Enterobacteriaceae. Particulars: in vitro data; cited from earlier work.
Setting [5] is: relative to lactulose monotherapy or combined therapy.

Turning to `OC[C@H]1O[C@@H](O[C@@H]2[C@@H](CO)OC(O)(CO)[C@H]2O)[C@H](O)[C@@H](O)[C@H]1O` (mixture of isomers) [LAC, Lactulose], in series [1], the “Survival Rates, One Year” value was determined as 46%; the “Survival Rates, Six Months” value worked out at 60%; the “Survival Rates, Three Years” value is reported as 29%. In addition, the “number of hospital readmissions” value in series [2] (compliant and non-compliant populations, comparison of LAC, RFX, RFX/LAC groups) is recorded as “highest”. In addition, in series [3], the adverse effect entry is “bowel bloating culminating in a sensation of decreased appetite” and the “caloric intake (in words)” value is on record as “marked decrease”.
On to `CO[C@H]1/C=C/O[C@@]2(C)Oc3c(C)c(O)c4c(O)c(c5c(nc6cc(C)ccn65)c4c3C2=O)NC(=O)/C(C)=C\C=C\[C@H](C)[C@H](O)[C@@H](C)[C@@H](O)[C@@H](C)[C@H](OC(C)=O)[C@@H]1C` [RFX, Rifaximin], for which, in series [1] (addition of rifaximin, alone or in combination with lactulose, overt HE), the “short- and long-term survival” value is on record as “improvement”. Further, in series [1], the “Survival Rates, One Year” value is recorded as 63%; the “Survival Rates, Six Months” value came out at 76%; the “Survival Rates, Three Years” value stood at 51%. Moreover, in series [2] (setting [5]), the frequency of hospitalizations result is given as “less frequent” and the “time to hospital readmission” value is “greater”. Also, in series [3], the “caloric intake (in words)” value is recorded as “appeared to maintain daily caloric intake”. Also, the “in vitro antibacterial activity” value in series [4] was “active”.
